Patent US9433655B2, “Composition comprising natural substance extract as active ingredient for preventing or treating acute renal failure” (priority 2012, dated 2016)
Entries after “also recorded” stand apart in the source; their conditions may differ.

Columns and labels:
p53 = assay: Examination of p53 expression pattern (Western blot); format: cell-based; settings: single treatment of cisplatin
Protocol: Cells treated with Elsholtziae Herba extract and/or cisplatin were harvested, and RIPA buffer was added thereto, followed by sonication for cell lysis. Centrifugation was performed at 15,000 rpm for 15 minutes, and the supernatant was obtained, and subjected to protein quantification by BCA assay. The protein was loaded at an amount of 20 μg/10 μl in each well, and 12% SDS-PAGE polyacrylamide gel electrophoresis was performed, and transferred to a nitrocellulose membrane. The membrane was blocked with 5% Skim milk-TBST, and then treated with primary antibody (anti-p53/dilution—1:300). p53 was detected with HRP conjugated anti-mouse IgG (dilution—1:5000) and immune reaction was visualized by ECL. The measurement results are shown as Mean±S.E.M. (standard error of mean) in FIG. 6.

renal epithelial cells = assay: Measurement of GSH content; format: cell-based; settings: single treatment of cisplatin 25 μg/ml, 24 hours
Protocol: Monochlorobimane was employed to determine the GSH levels, and experiments for measuring GSH content were performed using the […] with reference to the conventional method of Fernandez-Checa and Kaplowitz. The number of cells, in which GSH is detectable, was determined by historical data and preliminary experiment, and 2×10^6 cells were seeded to each well of culture plate. After culture for 24 hours, the dilution fold of the final concentration of the drug determined as an active drug was considered and calculated, based on the results of MTT Assay and crystal violet Assay. […] Cells were harvested using 0.25% Trypsin-EDTA, and then centrifuged at 1,200 rpm for 3 minutes. Cold buffer was added to the resulting cell pellet, followed by sonication for 30 seconds. Centrifugation was carried out at 10,000 rpm for 15 minutes, and then the supernatant was collected and used for BCA protein quantification. 1 g/ml of MPA diluted in D.W was added to the supernatant at a volume ratio of 4:1, followed by immediately vortexing. […] End-point fluorescence wavelength at Ex: 360 nm and Em: 460 nm was measured at S=70. Data of the experimental results were analyzed using a Microsoft Excel program, and post-test analysis using Bonferroni multiple comparison test was performed to investigate the differences between the groups. p<0.001 was considered statistically significant.

N.N.[Cl][Pt][Cl] [cisplatin, cis-diaminedichloroplatinum II]
p53 expression level (p53): increased p53 expression; also recorded: remarkably increased | GSH content (renal epithelial cells): reduced GSH content
